Source: ChEMBL document CHEMBL1201862, “PubChem BioAssay data set” (2004)
Activity calls are given as the source filed them.

Assays:
[1] = target: Voltage-gated inwardly rectifying potassium channel KCNH2 (Homo sapiens, UniProt Q12809); assay: concentration-dependent hERG rescue from blockers – cell-based, thallium flux, dose response (AID 2121); type: ADME
[2] = target: T1, Tyrosine-protein phosphatase non-receptor type 7 (Homo sapiens, UniProt P35236); assay: HePTP tyrosine phosphatase activity blockers – biochemical, absorbance, leukemia target, primary screen (AID 521); type: functional
T1 sequence (P35236 whole entry): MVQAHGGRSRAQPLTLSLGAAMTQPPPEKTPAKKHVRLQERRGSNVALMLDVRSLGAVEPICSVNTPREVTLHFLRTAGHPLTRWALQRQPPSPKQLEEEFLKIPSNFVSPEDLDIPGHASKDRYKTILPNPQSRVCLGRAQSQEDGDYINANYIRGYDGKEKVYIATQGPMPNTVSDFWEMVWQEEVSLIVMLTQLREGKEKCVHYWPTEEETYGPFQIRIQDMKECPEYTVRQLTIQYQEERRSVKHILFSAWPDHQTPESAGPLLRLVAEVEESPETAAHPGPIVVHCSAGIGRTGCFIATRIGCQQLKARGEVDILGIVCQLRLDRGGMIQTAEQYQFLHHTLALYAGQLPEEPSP

[3] = target: Sphingosine 1-phosphate receptor 2 (Homo sapiens, UniProt O95136); assay: Dose Response Cell Based Assay for Agonists of the S1P2 Receptor of Purchased Analogues. [Related pubchem assays: 729, 843, 854, 736 ]; type: functional
[4] = target: Glyceraldehyde-3-phosphate dehydrogenase (Homo sapiens, UniProt P04406)
Bcl-2-related protein A1 [5] = target: T2, Bcl-2-related protein A1 (Mus musculus, UniProt Q07440); assay: small-molecule antagonists of Bfl-1/BH3 interaction – biochemical, TR-FRET, mouse Bfl-1, confirmation (AID 621);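 further: TR-FRET binding of GST-Bfl-1 to FITC-labelled Bid peptide via terbium antibody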
T2 sequence (Q07440 whole entry): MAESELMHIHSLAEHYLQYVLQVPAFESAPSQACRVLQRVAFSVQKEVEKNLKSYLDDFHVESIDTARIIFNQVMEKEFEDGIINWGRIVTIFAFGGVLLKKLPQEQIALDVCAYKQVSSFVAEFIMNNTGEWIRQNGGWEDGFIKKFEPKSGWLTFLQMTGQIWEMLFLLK

Bcl-2-related protein A1 [6] = target: T2, Bcl-2-related protein A1; assay: Bfl-1 binding inhibitors, SAR follow-up, biochemical, fluorescence polarization (AID 1070)
Danio rerio = assay: In Vivo Angiogenesis Dose-Response Confirmation. [Related pubchem assays: 732 (Assay preceding this confirmatory assay.)]; type: functional, organism-based
Vero [7] = assay: inhibition of WNV-induced cytopathic effect – cell-based, CPE readout (AID 1621); type: functional; settings: Chlorocebus sabaeus
Vero [8] = assay: mammalian cell viability reduction – secondary assay, cytotoxicity control for West Nile virus antiviral project, dose response (AID 1650); type: functional; settings: Chlorocebus sabaeus

Sequence of Sphingosine 1-phosphate receptor 2 (O95136 whole entry): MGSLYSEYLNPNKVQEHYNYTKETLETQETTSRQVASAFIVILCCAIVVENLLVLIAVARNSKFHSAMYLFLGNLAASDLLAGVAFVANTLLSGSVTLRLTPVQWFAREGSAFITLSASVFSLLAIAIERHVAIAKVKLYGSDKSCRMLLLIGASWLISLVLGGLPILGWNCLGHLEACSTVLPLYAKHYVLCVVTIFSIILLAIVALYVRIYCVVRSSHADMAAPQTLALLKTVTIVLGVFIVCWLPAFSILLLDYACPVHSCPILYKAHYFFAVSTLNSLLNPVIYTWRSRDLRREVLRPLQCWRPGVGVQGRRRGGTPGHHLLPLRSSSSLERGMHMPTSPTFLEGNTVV
Sequence of Voltage-gated inwardly rectifying potassium channel KCNH2 (Q12809 whole entry): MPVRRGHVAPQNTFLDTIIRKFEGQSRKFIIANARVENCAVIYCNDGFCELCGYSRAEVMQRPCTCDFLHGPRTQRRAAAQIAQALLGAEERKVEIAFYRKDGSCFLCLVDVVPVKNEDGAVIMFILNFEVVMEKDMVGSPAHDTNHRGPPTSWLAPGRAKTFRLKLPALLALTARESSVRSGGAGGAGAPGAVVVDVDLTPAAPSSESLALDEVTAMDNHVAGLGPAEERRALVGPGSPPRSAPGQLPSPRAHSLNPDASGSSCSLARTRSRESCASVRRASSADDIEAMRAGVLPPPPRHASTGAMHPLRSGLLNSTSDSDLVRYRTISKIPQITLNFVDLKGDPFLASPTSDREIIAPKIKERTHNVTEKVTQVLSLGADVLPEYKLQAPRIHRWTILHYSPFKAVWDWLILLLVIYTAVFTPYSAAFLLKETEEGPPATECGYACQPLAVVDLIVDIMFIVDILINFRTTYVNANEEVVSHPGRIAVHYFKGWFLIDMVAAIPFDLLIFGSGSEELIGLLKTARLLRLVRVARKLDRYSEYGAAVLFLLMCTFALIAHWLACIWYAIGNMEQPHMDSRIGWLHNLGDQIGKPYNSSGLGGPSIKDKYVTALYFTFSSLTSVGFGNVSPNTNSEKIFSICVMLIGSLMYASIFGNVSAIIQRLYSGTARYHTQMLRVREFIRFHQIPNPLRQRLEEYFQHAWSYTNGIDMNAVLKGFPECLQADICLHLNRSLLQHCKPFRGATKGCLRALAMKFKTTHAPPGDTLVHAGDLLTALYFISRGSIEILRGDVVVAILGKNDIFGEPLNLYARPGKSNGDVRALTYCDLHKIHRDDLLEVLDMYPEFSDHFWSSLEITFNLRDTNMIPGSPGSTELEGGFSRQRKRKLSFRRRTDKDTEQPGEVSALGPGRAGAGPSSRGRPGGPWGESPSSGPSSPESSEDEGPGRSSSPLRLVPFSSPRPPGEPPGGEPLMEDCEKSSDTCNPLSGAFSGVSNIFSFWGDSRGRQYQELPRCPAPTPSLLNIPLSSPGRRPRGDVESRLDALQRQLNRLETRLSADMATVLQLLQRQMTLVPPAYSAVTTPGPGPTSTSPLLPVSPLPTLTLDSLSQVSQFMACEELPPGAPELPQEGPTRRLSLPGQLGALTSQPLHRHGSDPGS
Sequence of Glyceraldehyde-3-phosphate dehydrogenase (P04406 whole entry): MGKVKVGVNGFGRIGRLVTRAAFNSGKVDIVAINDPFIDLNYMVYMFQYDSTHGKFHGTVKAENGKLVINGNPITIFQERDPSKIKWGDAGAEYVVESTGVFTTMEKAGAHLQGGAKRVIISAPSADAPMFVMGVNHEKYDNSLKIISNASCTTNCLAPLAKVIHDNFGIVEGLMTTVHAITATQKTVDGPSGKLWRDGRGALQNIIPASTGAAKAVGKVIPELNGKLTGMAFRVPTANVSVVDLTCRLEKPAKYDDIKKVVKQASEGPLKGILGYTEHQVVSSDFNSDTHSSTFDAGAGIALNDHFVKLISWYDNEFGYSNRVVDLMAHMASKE

SMILES: CCc1ccc2nc(NC(=O)c3cc(C)on3)sc2c1
- EC50 [1]: 11.6 µM (active)

SMILES: Cc1nc2c(o1)CCc1ccccc1C2O (centres undefined)
- IC50 [2]: > 100 µM (not active)

SMILES: Cc1cc(C(=O)CN2C(=O)C(=O)N(Cc3ccccc3)C2=O)c(C)n1Cc1ccc(F)cc1
- EC50 [3]: > 30 µM (not active)

SMILES: O=C1C(Cl)=C(N2CCOCC2)C(=O)N1c1ccc([N+](=O)[O-])cc1
- IC50 [4]: > 100 µM (not active)
- IC50 (Bcl-2-related protein A1 [5]): 2.29 µM (active)
- IC50 (Bcl-2-related protein A1 [6]): 1.49 µM (active)

SMILES: O=C1Nc2c(Cl)cc(Cl)cc2/C1=C1/Nc2ccccc2C1=O
- IC50 (Danio rerio): 4.24 µM (active)

SMILES: COc1ccc(C2c3ccc4ccccc4c3Oc3ncn(CCCO)c(=N)c32)cc1OC (centres undefined)
- IC50 (Vero [7]): 21.5 µM (active)
- CC50 (Vero [8]): 19.7 µM (active)
